Data on 30 compounds can be found in patent US20100292205A1, “Pyrimidone Compounds As GSK-3 Inhibitors” (PFIZER INC., priority 2006, published 2010).

What is called inhibition is the share of the control response that was lost under treatment. As usually defined, the IC50 is the point on the concentration scale where inhibition reaches its midpoint.

T1 sequence (P49841 whole entry): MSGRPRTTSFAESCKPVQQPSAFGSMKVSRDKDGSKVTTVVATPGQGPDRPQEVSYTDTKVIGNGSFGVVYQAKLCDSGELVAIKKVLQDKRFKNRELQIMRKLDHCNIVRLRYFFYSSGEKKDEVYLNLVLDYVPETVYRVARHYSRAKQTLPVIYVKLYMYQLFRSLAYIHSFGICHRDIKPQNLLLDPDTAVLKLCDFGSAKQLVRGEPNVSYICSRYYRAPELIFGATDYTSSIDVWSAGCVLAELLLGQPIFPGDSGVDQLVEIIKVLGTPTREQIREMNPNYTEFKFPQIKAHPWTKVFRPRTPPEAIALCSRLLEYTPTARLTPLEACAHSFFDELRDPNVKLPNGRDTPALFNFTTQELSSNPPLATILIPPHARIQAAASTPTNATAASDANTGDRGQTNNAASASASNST

The first experiment has as its target T1, Recombinant human GSK3β (Homo sapiens, UniProt P49841).
T1 construct: His-tag; made in house; host or cells: Sf9 insect cells / baculovirus
The experiment can be described thus: GSK-3β (Glycogen Synthase Kinase) cell free enzyme assay. In kind it is biochemical. Conditions: 1 μM; Examples 157-199; read-out: Percent inhibition at 1 μM. In outline: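 Recombinant human GSK3β, expressed in SF9/baculovirus cells and His-tag purified on Ni-NTA Superflow, was preincubated with test agent for 30 minutes at room temperature. Substrate mix was then added to start the reaction in 8 mM MOPS (pH 7.0), 10 mM magnesium acetate, 0.2 mM EDTA, 1 mM DTT, 2 uM cold ATP, 0.025 uCi/well [33P]ATP (120 uL) and 1.0 uM biotinylated peptide. Reactions ran at RT for 60 min.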
For the compound `CN(c1nc(-c2ccncc2)cc(=O)n1C)C1CCN(S(C)(=O)=O)C1` (stereo not drawn) [Example 160, 3-Methyl-2-(methyl[1-(methylsulfonyl)pyrrolidin-3-yl]amino}-6-pyridin-4-ylpyrimidin-4(3H)-one], the inhibition at 1 µM is 79%.

Staying with this experiment, now noted: 1 μM; Examples 201-221.
With “Methyl (3a,S5,S7,aR)-3a- methyl-5-[methyl(1-methyl- 6-oxo-4-pyridin-4-yl-16- dihydropyrimidin-2- yl)amino]octahydro-1H- indole-1-carboxylate [Example 212]”, the “Percent inhibition at 1 μM” value came to 93%.

Still in this experiment, the particulars now being: 1 μM; Examples 201-221; read-out: Percent inhibition at 1 μM.
As for `COC(=O)N1CCCCC(Nc2nc(-c3ccncc3)cc(=O)n2C)C1` (stereo not drawn) [Example 206, Methyl 3-[(1-methyl-6-oxo-4-pyridin-4-yl-16-dihydropyrimidin-2-yl)amino]azepane-1-carboxylate], the inhibition at 1 µM was found to be 94%.

The same experiment, now with this note: 1 μM; Examples 236-262; read-out: Percent inhibition at 1 μM.
For `CN1CCC(N(C)c2nc(-c3ccncc3)cc(=O)n2C)C1` (stereo not drawn) [Example 245, 3-Methyl-2-[methyl(1-methylpyrrolidin-3-yl)amino]-6-pyridin-4-ylpyrimidin-4(3H)-one], the inhibition at 1 µM turned out to be 52%. As for `CN1CCCC(N(C)c2nc(-c3ccncc3)cc(=O)n2C)CC1` (stereo not drawn) [Example 243, 3-Methyl-2-[methyl(1-methylazepan-4-yl)amino]-6-pyridin-4-ylpyrimidin-4(3H)-one], the inhibition at 1 µM is 60%. In the case of `Cn1c(NC2CCCCN(Cc3ccccc3)C2)nc(-c2ccncc2)cc1=O` (stereo not drawn) [Example 252, 2-[(1-Benzylazepan-3-yl)amino]-3-methyl-6-pyridin-4-ylpyrimidin-4(3H)-one], the inhibition at 1 µM turned out to be 74%.

For `CN1C[C@H]2CC[C@@H](C1)N2c1nc(-c2ccncc2)cc(=O)n1C` [Example 239, 3-Methyl-2-[(1R,5S)-3-methyl-38-diazabicyclo[3.2.1]oct-8-yl]-6-pyridin-4-ylpyrimidin-4(3H)-one], the inhibition at 1 µM was determined as 57%.

In the case of `CN(c1nc(-c2ccncc2)cc(=O)n1C)C1CCN(Cc2ccccc2)C1` (stereo not drawn) [Example 256, 2-[(1-Benzylpyrrolidin-3-yl)(methyl)amino]-3-methyl-6-pyridin-4-ylpyrimidin-4(3H)-one], the inhibition at 1 µM stood at 83%.

The same experiment, now with this note: cell free enzyme assay; Examples 1-35.
Take `CCN(c1nc(-c2ccncc2)cc(=O)n1C)C1CCN(C(=O)OC(C)(C)C)C1` (stereo not drawn) [Example 13, tert-butyl 3-[Ethyl(1-methyl-6-oxo-4-pyridin-4-yl-1,6-dihydropyrimidin-2-yl)amino]pyrrolidine-1-carboxylate]: the IC50 was 0.0165 µM. Consider `CN(c1nc(-c2ccncc2)cc(=O)n1C)C1CCCN(C(=O)OC(C)(C)C)CC1` (stereo not drawn) [Example 10, tert-butyl 4-[Methyl(1-methyl-6-oxo-4-pyridin-4-yl-1,6-dihydropyrimidin-2-yl)amino]azepane-1-carboxylate], for which the IC50 worked out at 0.0144 µM. On to `Cn1c(N2CC[C@@H]3CN(C(=O)OC(C)(C)C)C[C@@H]32)nc(-c2ccncc2)cc1=O` [Example 26, tert-butyl (3aR,6aR)-1-(1-Methyl-6-oxo-4-pyridin-4-yl-1,6-dihydropyrimidin-2-yl)hexahydropyrrolo [3,4-b]pyrrole-5(1H)-carboxylate], for which the IC50 turned out to be 0.097 µM. Take `CCN(c1nc(-c2ccncc2)cc(=O)n1C)C1CCCN(C(=O)OC(C)(C)C)CC1` (stereo not drawn) [Example 15, tert-butyl 4-[Ethyl(1-methyl-6-oxo-4-pyridin-4-yl-1,6-dihydropyrimidin-2-yl)amino]azepane-1-carboxylate]: the IC50 amounted to 0.031 µM. As for `Cn1c(N2CCN(C(=O)OC(C)(C)C)[C@@H]3CCCC[C@H]32)nc(-c2ccncc2)cc1=O` [Example 25, tert-butyl (4aR,8aR)-4-(1-Methyl-6-oxo-4-pyridin-4-yl-1,6-dihydropyrimidin-2-yl)octahydroquinox-aline-1(2H)-carboxylate], the IC50 was 0.04 µM.

Still in this experiment, the particulars now being: cell free enzyme assay; Examples 62-155.
Consider `Cc1cc(C(=O)N2C[C@@H]3[C@H](C2)[C@H]3N(C)c2nc(-c3ccncc3F)cc(=O)n2C)cc(Cl)n1` [Example 104, 2-{[(1R,5S,6s)-3-(2-Chloro-6-methylisonicotinoyl)-3-azabicyclo[3.1.0]hex-6-yl](methyl)amino}-6-(3-fluoropyridin-4-yl)-3-methylpyrimidin-4(3H)-one], for which the IC50 was 0.0161 µM. Same read-out and setting: as for `Cn1c(NC2CCCN(C(=O)c3ccccc3)CC2)nc(-c2ccncc2)cc1=O` (stereo not drawn) [Example 63, 2-[(1-Benzoylazepan-4-yl)amino]-3-methyl-6-pyridin-4-ylpyrimidin-4(3H)-one], the figure is 0.0124 µM; as for `CN(c1nc(-c2ccncc2F)cc(=O)n1C)[C@H]1[C@@H]2CN(C(=O)c3ccncc3Cl)C[C@@H]21` [Example 148, 2-{[(1R,5S,6s)-3-(3-Chloroisonicotinoyl)-3-azabicyclo[3.1.0]hex-6-yl](methyl)amino}-6-(3-fluoropyridin-4-yl)-3-methylpyrimidin-4(3H)-one], 0.0361 µM; as for `COc1ccc(CC(=O)N2C[C@@H]3[C@H](C2)[C@H]3N(C)c2nc(-c3ccncc3F)cc(=O)n2C)cc1` [Example 109, 6-(3-Fluoropyridin-4-yl)-2-[{(1R,5S,6s)-3-[(4-methoxyphenyl)acetyl]-3-azabicyclo[3.1.0]hex-6-yl}(methyl)amino]-3-methylpyrimidin-4(3H)-one], 0.00403 µM. For the compound `CC(=O)O[C@@H](C)C(=O)N1C[C@@H]2[C@H](C1)[C@H]2N(C)c1nc(-c2ccncc2F)cc(=O)n1C` [Example 119, (1S)-2-[(1R,5S,6R)-6-{[4-(3-Fluoropyridin-4-yl)-1-methyl-6-oxo-1,6-dihydropyrimidin-2-yl](methyl)amino}-3-azabicyclo[3.1.0]hex-3-yl]-1-methyl-2-oxoethyl acetate], the IC50 stood at 0.0329 µM. Regarding `CN(c1nc(-c2ccncc2)cc(=O)n1C)C1CCCN(C(=O)Cc2ccccc2)CC1` (stereo not drawn) [Example 88, 3-Methyl-2-{methyl[1-(phenylacetyl)azepan-4-yl]amino}-6-pyridin-4-ylpyrimidin-4(3H)-one], the IC50 was 0.102 µM. In the case of `COc1cccc(C(=O)N2C[C@@H]3[C@H](C2)[C@H]3N(C)c2nc(-c3ccncc3F)cc(=O)n2C)c1` [Example 99, 6-(3-Fluoropyridin-4-yl)-2-{[(1R,5S,6s)-3-(3-methoxybenzoyl)-3-azabicyclo[3.1.0]hex-6-yl](methyl)amino}-3-methylpyrimidin-4(3H)-one], the IC50 worked out at 0.00146 µM. `CN(c1nc(-c2ccncc2F)cc(=O)n1C)[C@H]1[C@@H]2CN(C(=O)CC(C)(C)C)C[C@@H]21` [Example 131, 2-{[(1R,5S,6s)-3-(3,3-Dimethylbutanoyl)-3-azabicyclo[3.1.0]hex-6-yl](methyl)amino}-6-(3-fluoropyridin-4-yl)-3-methylpyrimidin-4(3H)-one]: the IC50 worked out at 0.00157 µM. On to `CCN(c1nc(-c2ccncc2)cc(=O)n1C)C1CCCN(C(=O)c2ccccc2)C1` (stereo not drawn) [Example 73, 2-[(1-Benzoylpiperidin-3-yl)(ethyl)amino]-3-methyl-6-pyridin-4-ylpyrimidin-4(3H)-one], for which the IC50 stood at 0.345 µM.

The experiment is the same for the next values; noted with them: cell free enzyme assay; Examples 222-234.
Turning to `Cn1c(N[C@@H]2CCCN(C(=O)OCc3ccncc3)C2)nc(-c2ccncn2)cc1=O` [Example 233, Pyridin-4-ylmethyl (3R)-3-[(1-methyl-6-oxo-1,6-dihydro-4,4′-bipyrimidin-2-yl)amino]piperidine-1-carboxylate], the IC50 came to 0.005 µM. For `COC(=O)N1CCC[C@@H](Nc2nc(-c3ccncn3)cc(=O)n2C)C1` [Example 228, Methyl (3R)-3-[(1-methyl-6-oxo-1,6-dihydro-4,4′-bipyrimidin-2-yl)amino]piperidine-1-carboxylate], the IC50 is 0.000994 µM.

Consider `CCN(C[C@H]1CCCN1C(=O)OC)c1nc(-c2ccncn2)cc(=O)n1C` [Example 226, Methyl (2R)-2-{[ethyl(1-methyl-6-oxo-1,6-dihydro-4,4′-bipyrimidin-2-yl)amino]methyl}pyrrolidine-1-carboxylate], for which the IC50 was 0.001 µM.

Still in this experiment, the particulars now being: cell free enzyme assay; Examples 265-291.
Consider `CN(c1nc(-c2ccncc2F)cc(=O)n1C)[C@H]1[C@@H]2CN(c3nc4ccccc4[nH]3)C[C@@H]21` [Example 272, 2-{[(1R,5S,6s)-3-(1H-Benzimidazol-2-yl)-3-azabicyclo[3.1.0]hex-6-yl](methyl)amino}-6-(3-fluoropyridin-4-yl)-3-methylpyrimidin-4(3H)-one], for which the IC50 was 0.0761 µM. On to `CCOCCn1nnnc1N1C[C@@H]2[C@H](C1)[C@H]2N(C)c1nc(-c2ccncc2F)cc(=O)n1C` [Example 273, 2-[{(1R,5S,6s)-3-[1-(2-Ethoxyethyl)-1H-tetrazol-5-yl]-3-azabicyclo[3.1.0]hex-6-yl}(methyl)amino]-6-(3-fluoropyridin-4-yl)-3-methylpyrimidin-4(3H)-one], for which the IC50 turned out to be 0.029 µM. Consider `CN(c1nc(-c2ccncc2F)cc(=O)n1C)[C@H]1[C@@H]2CN(c3nnnn3C3CCCC3)C[C@@H]21` [Example 284, 2-{[(1R,5S,6s)-3-(1-Cyclopentyl-1H-tetrazol-5-yl)-3-azabicyclo[3.1.0]hex-6-yl](methyl)amino}-6-(3-fluoropyridin-4-yl)-3-methylpyrimidin-4(3H)-one], for which the IC50 is 0.0125 µM. For `CCOc1cccc(-n2nnnc2N2C[C@@H]3[C@H](C2)[C@H]3N(C)c2nc(-c3ccncc3F)cc(=O)n2C)c1` [Example 286, 2-[{(1R,5S,6s)-3-[1-(3-Ethoxyphenyl)-1H-tetrazol-5-yl]-3-azabicyclo[3.1.0]hex-6-yl}(methyl)amino]-6-(3-fluoropyridin-4-yl)-3-methylpyrimidin-4(3H)-one], the IC50 came out at 0.0032 µM. Turning to `CN(c1nc(-c2ccncc2F)cc(=O)n1C)[C@H]1[C@@H]2CN(c3nc4cc(F)ccc4[nH]3)C[C@@H]21` [Example 288, 2-{[(1R,5S,6s)-3-(5-Fluoro-1H-benzimidazol-2-yl)-3-azabicyclo[3.1.0]hex-6-yl](methyl)amino}-6-(3-fluoropyridin-4-yl)-3-methylpyrimidin-4(3H)-one], the IC50 was 0.116 µM.
